Laboratory results reported in US20220072165A1, “RADIODRUG FOR DIAGNOSTIC/THERAPEUTIC USE IN NUCLEAR MEDICINE AND RADIO-GUIDED MEDICINE” (UNIVERSITÀ DEGLI STUDI DI ROMA "LA SAPIENZA", priority 2019, published 2022).

How the values were obtained:
[1] = biological target: T1, norepinephrine transporter (NET) (Homo sapiens, UniProt P23975); assay: competition with ^3H-NE for uptake by SK-N-SH cells; type: cell-based; settings: for inhibition of the uptake/internalization of ^3H-NE (competition with ^3H-NE): 1 hour, tested up to 100 μM; for substrate of NET compared with MIBG: competition with ^3H-NE
T1 construct: human neuroblastoma cells SK-N-SH, which are known to express the transporter NET in large quantity; host or cells: SK-N-SH human neuroblastoma cells
T1 sequence (P23975 whole entry): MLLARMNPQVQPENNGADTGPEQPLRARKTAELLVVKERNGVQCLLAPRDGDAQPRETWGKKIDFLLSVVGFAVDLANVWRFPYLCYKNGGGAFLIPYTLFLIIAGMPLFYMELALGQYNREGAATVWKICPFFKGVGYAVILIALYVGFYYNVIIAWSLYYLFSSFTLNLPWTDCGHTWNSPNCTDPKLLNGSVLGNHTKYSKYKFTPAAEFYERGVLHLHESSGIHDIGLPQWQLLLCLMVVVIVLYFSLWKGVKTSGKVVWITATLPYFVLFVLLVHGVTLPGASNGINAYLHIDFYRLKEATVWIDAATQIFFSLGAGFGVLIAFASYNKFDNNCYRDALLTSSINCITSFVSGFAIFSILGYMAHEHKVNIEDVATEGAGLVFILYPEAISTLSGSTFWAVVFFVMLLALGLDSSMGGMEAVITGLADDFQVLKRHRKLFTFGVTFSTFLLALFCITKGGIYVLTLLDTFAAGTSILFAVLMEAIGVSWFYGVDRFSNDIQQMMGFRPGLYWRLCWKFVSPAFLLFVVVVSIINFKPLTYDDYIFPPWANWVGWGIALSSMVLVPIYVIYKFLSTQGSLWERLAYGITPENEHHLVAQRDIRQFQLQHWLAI
Excerpt: The ability of the ^89Y-DOTA-BG chelate (1a, MC4324) (non-radioactive analogue of the compound of Formula II, 1 or MC4324) to act as substrate of NET has been evaluated in competition experiments with the tritiated endogenous substrate ^3H-NE for the uptake by the human neuroblastoma cells SK-N-SH, which are known to express the transporter NET in large quantity. […] This provides the ability to prepare radio-marked versions of the chelate of Formula II (or MC4324) with an even low specific activity, because the absence of competition for NET between the chelate (MC4324) and the free binder 9 (MC4325) doesn't compromise the bonding ability to NET of the chelate (compound of Formula II, MC4324) also in the presence of an excess of free binder 9 (MC4325).
FIG. 3 depicts the competition of the ^89Y-DOTA-BG chelate (1a, MC4324) (non-radioactive analogue of the compound of Formula II, 1 or MC4324) and of free binder 9 (MC4325) with ^3H-NE (50 nM, 1 hour incubation, T=37° C.) for the uptake by the SK-N-SH cells. ^1H-NE a 20 μM and MIBG @ 2 μM have been used as positive controls.
^3H-NE has been purchased from Perkin Elmer. To measure the initial cell uptake speeds of ^3H-NE, the cells have been grown for 16 hours in the presence of serum only, then incubated with binder medium (EMEM containing 0.2% BSA and 20 mM Hepes, pH 7.5) for 10 minutes by heating in a water bath at 37° C. The bond has been initiated by adding 0.5 ml per well of 50 nM ^3H-NE to the binder medium for […], the plates have then been placed on ice and washed three times with frozen PBS. Thus, the cell monolayers have been dried and lysed with […]. The cpm (“counts” per minute) have been determined separately in the different wells in triple for each time. By cpm is meant “counts” or “hits” per minute, i.e. the nuclear disintegrations that occur in one minute. These disintegrations come from inside the cells after these have been, following the order below: 1) incubated with ^3H-NE, 2) washed with PBS to eliminate ^3H-NE remained outside the cells, 3) lysed for better detecting the radioactivity due to the internalized ^3H-NE only.
The background bond has been determined in parallel in a fourth well containing a 400 times molar excess of non-marked ^1H-NE (“cold”). For the competition study, the cells have been plated as above, and thus incubated for 1 hour with 50 nM ^3H-NE in binder medium in the absence and presence of the ^89Y-DOTA-BG chelate (compound of Formula II, 1a or MC4324) (non-radioactive analogue of the compound of Formula II, 1 or MC4324) and free binder 9 (MC4325) at different concentrations. The radioactivity has been determined separately in the wells in triple for each concentration value. The uptake of ^3H-NE has been expressed as total radioactivity percentage normalized for mg of protein.
The ability of the “cold” chelates of Formula III (10a′, MC4801) and IV (10b′, MC4803) to act as substrates of NET has been evaluated in competition experiments with the tritiated endogenous substrate ^3H-NE for the uptake by the human neuroblastoma cells SK-N-SH, which are known to express the transporter NET in large quantity. […] Therefore also in this case it is possible to prepare radio-marked versions of the chelates of Formula III (10a, MC4801) and IV (10b, MC4803) with low specific activity, as the absence of competition for NET between the chelates 10a,b (MC4801 and MC4803) and the respective free binders 13a,b (MC4802 and MC4804) doesn't compromise the bonding ability to NET of the chelates [compounds of Formula III (10a, MC4801) and IV (10b, MC4803)] also in the presence of an excess of free binders 13a,b (MC4802 and MC4804). […]

[2] = tested on: human neuroblastoma line SK-N-SH; assay: cytotoxic effects in SK-N-SH cells; type: cell-based; settings: up to the maximum concentration tested (100 μM)
[3] = stability in human serum (release of ^90Y^3+ to serum proteins); type: in vitro ADME; settings: 32 MBq per 16 ml, T=37° C., 14 days
Experimental: The stability in serum of the […] chelate of Formula II (1 or MC4324) has been evaluated by measuring the release of the metal cation ^90Y^3+ from the chelate to the serum proteins during 14 days in which it has been kept in physiological conditions. Briefly, the ^90Y-DOTA-BG chelate of Formula II (1 or MC4324) has been incubated with human serum (32 MBq for 16 ml of serum) at T=37° C. At regular time intervals serum aliquots have been collected and, by using centrifuge filter tubes (Amicon® Ultra-4 3K, Merck Millipore) and by centrifuging at 5500 g, the serum proteins have been separated from the non-protein fraction of serum and the radioactivity of both fractions has been measured with a liquid scintillation β counter (scintillation liquid used is Perkin Elmer ULTIMA GOLD).
The stability in serum of the chelates of Formula III (10a, MC4801) and IV (10b, MC4803) has been evaluated by measuring the release of the metal cation ^90Y^3+ from the chelates to the serum proteins during 14 days in which they have been kept in physiological conditions. Briefly, the chelates of Formula III (10a, MC4801) and IV (10b, MC4803) have been incubated with human serum (32 MBq per 16 ml of serum) at T=37° C. At regular time intervals serum aliquots have been collected and, by using centrifuge filter tubes (Amicon® Ultra-4 3K, Merck Millipore) and by centrifuging at 5500 g, the serum proteins have been separated from the non-protein fraction of serum and the radioactivity of both fractions has been measured with a liquid scintillation β counter (scintillation liquid used is Perkin Elmer ULTIMA GOLD).

[4] = chemical stability in physiological conditions (PBS buffer, 37° C., analytical HPLC); type: physicochemical; settings: for Area 1 (chromatographic peak of compound 1a) / Area (1 + 2) (peaks of compound 1a and impurity 2): PBS, 37° C.
Experimental: The stability of the chelate ^89Y-DOTA-BG (1a, MC4324) (non-radioactive analogue of the compound of Formula II, 1 or MC4324) in physiological conditions has been evaluated by analysis with analytical HPLC (Shimadzu Nexera chromatograph equipped with a SPD-M20A PDA detector; Hypersil ODS GOLD 250×4.6 mm column; eluent: MeOH/H2O 5:95 v/v+0.02% TFA, flow: 1.0 ml/min; UV detection 214 nm) repeated at regular time intervals after having solubilized it in PBS buffer (c=0.9 mg/ml) and kept at T=37° C.
FIG. 2 depicts the HPLC plot relative to the compound ^89Y-DOTA-BG (1a) solubilized in PBS buffer (c=0.9 mg/ml) and at T=37° C. time t=0 min (A), t=21 hours (B) and t=5 days (C). […]

Compound: N=C(N)NCc1cccc(C(=O)NCCCNC(=O)CN2CCN(CC(=O)O)CCN(CC(=O)O)CCN(CC(=O)O)CC2)c1 [13a, 2,2′,2″-(10-(2-((3-(3-(guanidinomethyl)benzamido)propyl)amino)-2-oxoethyl)-1,4,7,10-tetraazacyclododecane-1,4,7-triyl) triacetic acid]
- inhibition of the uptake/internalization of ^3H-NE (competition with ^3H-NE) ([1]; 50 nM ^3H-NE, 37° C.): completely unable to compete

Compound: N=C(N)NCc1cccc(C(=O)NCCCNC(=O)CN2CCN(CC(=O)[O-])CCN(CC(=O)[O-])CCN(CC(=O)[O-])CC2)c1.[89Y+3] [10a′]
- inhibition of the uptake/internalization of ^3H-NE (competition with ^3H-NE) ([1]; 50 nM ^3H-NE, 37° C.): dose-dependent inhibition
- substrate of NET compared with MIBG [1]: substrate of NET analogously to MIBG, even though with lower power
- substrate of NET compared with MIBG ([1]; listed as Formula III): substrates of NET analogously to MIBG
- cytotoxic effects [2]: without dose-dependent cytotoxic effects
- cytotoxic effects ([2]; listed as Formula III): without cytotoxic effects

Compound: N=C(N)NCc1cccc(C(=O)NCCCCNC(=O)CN2CCN(CC(=O)[O-])CCN(CC(=O)[O-])CCN(CC(=O)[O-])CC2)c1.[90Y+3] [10b]
- loss of radioactivity (^90Y^3+) in favor of the protein fraction of serum [3]: no measurable loss of radioactivity

Compound: N=C(N)NCc1cccc(I)c1 [MIBG, reference compound]
- competition of positive control with ^3H-NE for the internalization ([1]; non-marked MIBG at 2 μM): compete with ^3H-NE for the internalization

Compound: NC[C@H](O)c1ccc(O)c(O)c1 [^1H-NE, reference compound]
- competition of positive control with ^3H-NE for the internalization ([1]; non-marked ^1H-NE at 20 μM): compete with ^3H-NE for the internalization

Compound: N=C(N)NCc1cccc(C(=O)NCCNC(=O)CN2CCN(CC(=O)[O-])CCN(CC(=O)[O-])CCN(CC(=O)[O-])CC2)c1.[89Y+3] [1a]
- IC50 ([1]; 50 nM ^3H-NE, 1 hour incubation, 37° C., read-out: inhibition of the ^3H-NE uptake IC50): ~10 µM
- inhibition of the uptake/internalization of ^3H-NE (competition with ^3H-NE) ([1]; 50 nM ^3H-NE, 37° C.): dose-dependent inhibition
- substrate of NET compared with MIBG [1]: substrate of NET analogously to MIBG, even though with lower power
- chemical purity after 5 days ([4]; PBS buffer c=0.9 mg/ml, T=37° C., HPLC UV 214 nm, 5 days): higher than 99.5%
- Area 1 (chromatographic peak of compound 1a) ([4]; time 0 min): 34.78
- Area (1 + 2) (peaks of compound 1a and impurity 2) ([4]; time 0 min): 35.13
- Area 1 (chromatographic peak of compound 1a) ([4]; time 30 min): 35.09
- Area (1 + 2) (peaks of compound 1a and impurity 2) ([4]; time 30 min): 35.29
- Area 1 (chromatographic peak of compound 1a) ([4]; time 1 hour 30 min): 35.07
- Area (1 + 2) (peaks of compound 1a and impurity 2) ([4]; time 1 hour 30 min): 35.30
- Area 1 (chromatographic peak of compound 1a) ([4]; time 5 hours): 35.13
- Area (1 + 2) (peaks of compound 1a and impurity 2) ([4]; time 5 hours): 35.40
- Area 1 (chromatographic peak of compound 1a) ([4]; time 21 hours): 37.15
- Area (1 + 2) (peaks of compound 1a and impurity 2) ([4]; time 21 hours): 37.45
- Area 1 (chromatographic peak of compound 1a) ([4]; time 5 days): 38.34
- Area (1 + 2) (peaks of compound 1a and impurity 2) ([4]; time 5 days): 38.65
- cytotoxic effects [2]: without dose-dependent cytotoxic effects

Compound: N=C(N)NCc1cccc(C(=O)NCCNC(=O)CN2CCN(CC(=O)[O-])CCN(CC(=O)[O-])CCN(CC(=O)[O-])CC2)c1.[90Y+3] [compound 1]
- loss of radioactivity (^90Y^3+) in favor of the protein fraction of serum [3]: no measurable loss of radioactivity

Compound: N=C(N)NCc1cccc(C(=O)NCCNC(=O)CN2CCN(CC(=O)O)CCN(CC(=O)O)CCN(CC(=O)O)CC2)c1 [compound 9, 2,2′,2″-(10-(2-((2-(3-(guanidinomethyl)benzamido)ethyl)amino)-2-oxoethyl)-1,4,7,10-tetraazacyclododecane-1,4,7-triyl) triacetic acid]
- inhibition of the uptake/internalization of ^3H-NE (competition with ^3H-NE) ([1]; 50 nM ^3H-NE, 37° C.): completely unable to compete

Compound: CC(CCNC(=O)CN1CCN(CC(=O)O)CCN(CC(=O)O)CCN(CC(=O)O)CC1)NC(=O)c1cccc(CNC(=N)N)c1 (stereo not drawn) [13b, 2,2′,2″-(10-(2-((3-(3-(guanidinomethyl)benzamido)butyl)amino)-2-oxoethyl)-1,4,7,10-tetraazacyclododecane-1,4,7-triyl) Triacetic Acid]
- inhibition of the uptake/internalization of ^3H-NE (competition with ^3H-NE) ([1]; 50 nM ^3H-NE, 37° C.): completely unable to compete

Compound: N=C(N)NCc1cccc(C(=O)NCCCNC(=O)CN2CCN(CC(=O)[O-])CCN(CC(=O)[O-])CCN(CC(=O)[O-])CC2)c1.[90Y+3] [10a]
- loss of radioactivity (^90Y^3+) in favor of the protein fraction of serum [3]: no measurable loss of radioactivity
